Test results as given in patent US20250084178A1, “ANTI-CD39 ANTIBODIES AND USE THEREOF” (ARCUS BIOSCIENCES, INC., priority 2022, published 2025).

Assays:
CT26 and MC38 cells = assay: Extracellular ATP release after oxaliplatin, murine colon carcinoma lines; assay type: cell-based; details: 250 μM oxaliplatin, 8 hours
Method: (§1) To evaluate cellular ATP release following oxaliplatin treatment, murine colon carcinoma cell lines CT26 and MC38 and human melanoma cell line SK-MEL-5 were defrosted, rinsed, and resuspended in their respective culture media. Culture media for CT26 and MC38 is RPMI+10% FBS+1% glutamax+1% penicillin-streptomycin+1% sodium pyruvate. Culture media for SK-MEL-5 is EMEM+10% FBS+1% glutamax+1% penicillin-streptomycin+1% sodium pyruvate. Cells were plated at 2.5×10^4 cells per well in a 96-well plate and incubated overnight at 37° C., 5% CO2. The following day, the cells were treated with the vehicle (PBS), 100 μM or 250 μM oxaliplatin. […] To determine cellular viability, the cells were incubated with treatments for 24 hours at 37° C., 5% CO2. At the end of the incubation period, viability was determined using luminescence-based Cell Titer Glo 2.0 assay (Promega, Cat. No. G9242). Data are presented as viability normalized to untreated vehicle controls (FIG. 19A). To determine HMGB1 release, the cells were incubated with treatment for 24 hours at 37° C., 5% CO2. At the end of the incubation period, the plates were centrifuged at 400×g for 5 minutes and supernatants were collected. HMGB1 levels in the culture supernatants were then determined using Lumit HMGB1 Kit (Promega, Cat. No. CS3030B01) following manufacturer's instructions (FIG. 19B). […]

SK-MEL-5 cells = assay: Extracellular ATP release after oxaliplatin, SK-MEL-5 cells; assay type: cell-based, human; details: 250 μM oxaliplatin, 8 hours
Method: as §1

With `O=C1[O][Pt]2([NH][C@@H]3CCCC[C@H]3[NH]2)[O]C1=O` [oxaliplatin, reference compound] the “Extracellular ATP release” value (CT26 and MC38 cells) was “demonstrated ATP release” and the “Extracellular ATP release” value (SK-MEL-5 cells) was “demonstrated ATP release”.
